The assay deals with Leukotriene C4 (LTC4) and leukotriene D4 (LTD4) biosynthesis by cultured rat basophilic leukemia cells (RBL-1 cells). The assay is described as follows: Inhibition of leukotriene biosynthesis (LTC4 and LTD4, ionophore-induced) in cultured RBL-1 cells, quantitated by radioimmunoassay. It counts as cell-based. The conditions noted are these: LTC4 equivalents by [3H]-RIA. The protocol: Leukotriene C4 (LTC4) and leukotriene D4 (LTD4) biosynthesis by cultured rat basophilic leukemia cells (RBL-1 cells) was induced by incubation of the cells with an ionophore. See B. A. Jakschik, S. Falkenheim, and C. W. Parker, "Precursor Role of Arachidonic Acid in Release of Slow Reacting Substance from Rat Basophilic Leukemia Cells," Proc Natl. Acad. Sci. U.S.A., 74, 4577-4581 (1977). The LTC4 and LTD4 biosynthesis was quantitated at LTC4 equivalents by radioimmunoassay using the Leukotriene C4 [^3 H]-RIA Kit available commercially from New England Nuclear, 549 Albany Street, Boston, Mass. Compounds were screened initially at 10^-4 M or 10^-5 M and compared with nordihydroguaiaretic acid (the reference standard). A compound inhibiting leukotriene synthesis at any given concentration by at least 30% relative to the reference standard was considered active. […] Table A lists IC50 's for representative compounds of this invention.

One may read the IC50 as the concentration that gives 50% inhibition. As to `CCOC(=O)CC(=O)C=Cc1cccc(Oc2ccc(Cl)cc2)c1` [Example 21, ethyl 5-[3-(4-chlorophenoxy)phenyl]-3-oxo-4-pentenoate], the IC50 is 26.5 µM.

For `CCOC(=O)CC(=O)C=Cc1ccc(OC)cc1` [Example 23, ethyl 5-(4-methoxyphenyl)-3-oxo-4-pentenoate], the half-inhibitory concentration (IC50) came out at 67 µM.

For the compound `CCOC(=O)CC(=O)C=Cc1cccc(Oc2ccccc2)c1` [Example 20, ethyl 3-oxo-5-(3-phenoxyphenyl)-4-pentenoate], the concentration for half-maximal inhibition (IC50) amounted to 27 µM.

For the compound `CCOC(=O)CC(=O)C=Cc1ccccc1` [Example 1, ethyl 3-oxo-5-phenyl-4-pentenoate], the IC50 turned out to be 20 µM.

Consider `CCOC(=O)CC(=O)C=Cc1cccc2ccccc12` [Example 27, ethyl 5-(1-naphthyl)-3-oxo-4-pentenoate], for which the IC50 came out at 27.2 µM.

The values are drawn from patent US4649157A, “Pharmaceutical compositions containing 5-phenyl-1,3-dioxoalkenyl compounds” (G. D. Searle & Co., priority 1986, dated 1987).
